Laboratory results: patent publication US20090099064A1, “Derivatized insulin oligomers” (Diabecore Medical Inc.,, priority 2006, published 2009)
Where two headings read alike, the source gives them in different places.

Columns and labels:
Sprague-Dawley rats = assay: Pulmonary (intratracheal) administration to Sprague-Dawley rats, whole blood glucose; format: in vivo
Method: FIG. 6. Glucose response of Sprague-Dawley rats to […] of phosphorylated insulin hexamer. Rats were injected at Oh and glucose levels measured for 12 h. As shown, glucose levels dropped by 2 h post-dosing and remained suppressed out to 11 h post-dose, after which they returned to baseline or pre-dose levels.
Via the pulmonary route, six Sprague-Dawley rats (BW 250-360 g.) were administered 4 mg of phosphorylated insulin oligomer (in the form of hexamer). The animals were dosed by intratracheal administration using a PennCentury intratracheal Aerosolizer (Microsprayer). The dose volume was 100 μL/animal. The dose concentration for the study was prepared by dilution of 30 mg/mL phosphorylated insulin hexamer in isotonic phosphate buffered normal saline, pH 7.4.
An Antisedan cocktail consisting of atipamezole hydrochloride (1 mg/mL, 1 mg/kg) and saline was administered by subcutaneous injection at a dose volume of 1 mL/kg, following completion of the dosing process. A series of 13 blood samples (approximately 0.1 mL/sample) were collected from each animal at 1, 2, 3, 4, 5, 6, 7, 8, 9, 10, 11 and 12 hours post-dose. For this purpose, each rat (unanesthetized) was bled by jugular/tail vein venipuncture (or other site as deemed necessary) and the sample used for measuring whole blood glucose levels using the Accu Soft Advantage™ (glucometer) method. […]

[1] = system: pancreatectomized diabetic beagle dogs; assay: Intravenous injection into pancreatectomized diabetic dogs, blood glucose
[2] = system: pancreatectomized diabetic beagle dogs; details: dog, in vivo, iv
L6 rat myocytes = assay: 2-deoxyglucose uptake in L6 rat myocyte cell cultures; format: cell-based; details: 60 min incubation
Method: FIG. 5. Dose response curve of human & porcine & P-insulin oligomers in L6 rat myocytes. Cells were incubated for 60 min. in the various concentrations of each insulin in separate experiments. 2-deoxyglucose uptake was then measured.
P-insulin oligomers of sequence ID NO. 1 were tested in L6 rat myocyte cell cultures for their ability to cause glucose uptake.

diabetic beagle dogs = assay: Subcutaneous injection into diabetic dogs, glucose suppression; format: in vivo; details: compared with unmodified insulin
Method: FIG. 4. Subcutaneous injection of human insulin and P-insulin oligomers into diabetic beagle dogs.
The formulation of example 3 containing P-insulin oligomers of sequence ID NO.2 and with 3:1 M:M protamine/insulin or unmodified insulin were injected subcutaneously into diabetic dogs.

[3] = phase 3 clinical trials; cited from earlier work
[4] = U.S. Pat. No. 5,453,417 & PCT/CA92/00082; cited from earlier work
[5] = IV injection, pancreatectomized diabetic dogs

Which results are given for “phosphorylated insulin hexamer: phosphorylated insulin oligomer in the form of hexamer, in isotonic phosphate buffered normal saline, pH 7.4”?
time at which glucose returned to pre-dose levels (Sprague-Dawley rats; 4 mg): ≤ 12 h; time for which blood glucose remained below baseline post-dosing (Sprague-Dawley rats; 4 mg (FIG. 6 legend says 40 mg)): 11 h

What does the source list for human insulin?
serum half-life / duration of action (in words) ([1]; IV injection, pancreatectomized diabetic beagle dogs): short serum half-life; course of blood glucose after injection [1, 5]: rapid decline in blood glucose; hypoglycemia [1, 5]: pronounced hypoglycemia; duration of action ([1]; given IV, pancreatectomized diabetic dogs): 20 min

With “P-insulin oligomers: phosphorylated insulin oligomers comprising sequence ID NOs. 1 and 2; FIG. 3 and 5 use ID NO. 1, FIG. 4 uses ID NO. 2” as the substance, how does the “course of blood glucose after injection” value [1, 5] read?
Its value is “maintenance of normal glucose without hyperglycemia at all doses”.

What about the “dose at which hypoglycemia was observed” value [2] of the same substance?
The value was 8 times the basal or "glucose ma.

What about the “serum half-life / duration of action (in words)” value [2] of the same substance?
Its value is “extended duration of action (long serum half-life)”.

What about the “dose response of 2-deoxyglucose uptake” value (L6 rat myocytes; entire dose range) of the same substance?
Its value is “flattened dose response at all concentrations investigated”.

What about the “maximal stimulation of deoxy-glucose uptake” value (L6 rat myocytes; relative to human (and porcine) insulin) of the same substance?
Its value is “markedly lower than that for porcine or human insulin”.

What about the “glucose suppression / duration of action” value (diabetic beagle dogs) of the same substance?
The value was “extended duration of action”.

With Lantus as the substance, how does the “fasting blood glucose (FBG) achieved” value [3] read?
Its value is 145 mg %.

Which “flattening of insulin's dose response” value [4] does the source give for “monomeric phosphorylated insulin: monomeric phosphorylated insulin of the Lougheed patents U.S. Pat. No. 5,453,417 & PCT/CA92/00082” here?
Its value is 3-4 fold.

For Detemir, which “fasting blood glucose (FBG) achieved” value [3] is on record?
Its value is 145 mg %.
